{"source": "patent US12022787B2", "about": "“Efficient monocot embryo extraction and preservation methods and novel uses thereof” (Wisconsin Alumni Research Foundation, priority 2019, dated 2024)", "key": {"[1]": {"system": "Barley shoot tips / mature embryo explants", "assay": "Multiple bud/shoot induction from barley mature embryo explants on bud induction media", "format": "in vivo", "conditions": "for multiple bud/shoot induction in barley shoot tips: relatively high amount of cytokinin to 2,4-D, 2 weeks", "method": "To induce multiple buds/shoots from the leaf base of Barley shoot tips post co-culture, we applied medium with a high relative amount of cytokinin to auxin (measured by either concentration or relative activity). Explants were generally on these bud induction medium for a total of 2 weeks, after which presence of multiple buds/shoots was assessed (phenotype shown in FIG. 21, with data summarized in boxplot form in FIG. 22). […] In some experiments, after 1 week on induction media without selection, explants were transferred to induction media with selection. During this 2-week period explants were kept at 27 C 16/8 photoperiod. It may be possible to reduce chimerism in T0 Barley plants by extending this shoot multiplication step to 4-8 weeks.(9)\nWe followed this experiment up examining removal of 2,4-D from the bud induction phase, as well as its replacement with either picloram or fipexide."}, "[2]": {"system": "LH244 maize iVAEs (immature embryos, 20 DAP)", "assay": "Glyphosate sensitivity (selection titer) of dried, frozen, rehydrated maize iVAEs on Regeneration II medium", "format": "in vivo", "method": "Maize iVAEs (Immature Value-Added Explants) were prepared following the methods outlined below, and viability and glyphosate sensitivity of the dried, stored embryos were tested. These iVAEs were incubated for four days in a drying chamber with MgNO3 saturated salts and then stored at s −20° C. These frozen iVAEs were later pulled from storage and used to determine process survival as well as used in an experiment to determine sensitivity to the herbicide glyphosate (Millipore Sigma Glyphosate “N-(Phosphonomethyl) glycine”; Cat #337757-5G) for future use as a selection agent for these novel explants.\nPost Storage Rehydration Method of the iVAE embryos: Dried maize embryos (iVAEs) were placed on a sterile plate of Regeneration Medium II) and incubated at room temperature for 1 hour. Afterward, sterile water was added and embryos were incubated at room temperature for an additional hour followed by gentile agitation to complete the rehydration process. Embryos were then placed on experimental media to determine survival as well as sensitivity to glyphosate. The rehydrated maize iVAEs were placed on media plates, evenly spaced, and each plate was sealed with porous tissue culture tape and incubated in growth chamber at 26° C. with 16/8 light/dark photoperiod with 60 μmol m-2 s-1. For up to 56 days of observation.\n20 DAP LH244 ears were collected from self-pollinated plants in the greenhouse. The embryos were extracted using the iVAE protocol. The extracted and cleaned embryos were placed in a drying chamber with MgNO3 saturated salts for 4 days. LH244 embryos were frozen for 4 days, or until used, at −20° C. in a hermetically closed 50 mL Falcon tube\nLH244 embryos were rehydrated as described in Example 9. Following rehydration, plates were set up using Regeneration II Medium. The first replicate has 30 embryos per plate, and the second only 22 per plate. The measurements are standardized to the number of surviving embryos, as measured by the number of embryos displaying coleoptile elongation. A subset of embryos was tested for viability using tetrazolium chloride (TTC).\nWe analyzed this experiment by counting the percent germination, looking at stress phenotype and using the viability stain tetrazolium chloride (TTC). In general, during germination, green tissue is healthy, purple tissue is stressed and producing anthocyanins, and silver or white tissue is not producing chlorophyll."}}, "data": [{"smiles": "c1ccc(CNc2ncnc3nc[nH]c23)cc1", "note": "[BAP, 6-benzylaminopurine]", "values": [{"measurement": "multiple bud/shoot induction in barley shoot tips", "setting": "[1]", "value": "could induce multiple buds/shoots"}]}, {"smiles": "O=C(Nc1ccccc1)Nc1cnns1", "note": "[TDZ, thidiazuron]", "values": [{"measurement": "explant phenotype after 2 weeks on bud induction media", "setting": "[1]; 3 ppm TDZ, 1 ppm 2,4-D", "value": "multiple shooting/budding phenotype"}, {"measurement": "multiple bud/shoot induction in barley shoot tips", "setting": "[1]", "value": "could induce multiple buds/shoots"}]}, {"smiles": "O=C(COc1ccc(Cl)cc1)N1CCN(Cc2ccc3c(c2)OCO3)CC1", "note": "[fipexide]", "values": [{"measurement": "explant health versus controls", "setting": "[1]; 3 ppm TDZ, 10 ppm fipexide", "value": "looked healthier than controls on 2,4-D media"}, {"measurement": "explant phenotype after 2 weeks on bud induction media", "setting": "[1]; 3 ppm TDZ, 10 ppm fipexide", "value": "multiple shooting/budding phenotype"}, {"measurement": "explant phenotype after 2 weeks on bud induction media", "setting": "[1]; 10 ppm fipexide, TDZ removed", "value": "germinating phenotype"}, {"measurement": "explant phenotype after 2 weeks on bud induction media", "setting": "[1]; 100 ppm fipexide", "value": "explant sensitivity"}]}, {"smiles": "O=C(O)CNCP(=O)(O)O", "note": "[glyphosate, N-(Phosphonomethyl) glycine]", "values": [{"measurement": "damage (loss of greening shoots)", "setting": "[2]; 10 μM glyphosate treatment plates, at 27 days", "value": 90, "unit": "%"}, {"measurement": "reduction in frequency of greening shoots (impairment)", "setting": "[2]; 50 μM glyphosate treatment plates, 10 days after start", "value": "about 80%"}, {"measurement": "glyphosate concentration giving apparent reduction of anthocyanins synthesis", "setting": "[2]; after 49 days", "value": "≥ 100", "unit": "µM"}, {"measurement": "anthocyanin production in treated embryos", "setting": "[2]; in response to glyphosate", "value": "significant anthocyanin production"}]}]}
